Test results from patent US6670189B2, “Fumonisin detoxification compositions and methods” (priority 1994, dated 2003).

Key:
[1] = system: AP1 catabolase; experiment: AP1 catabolase activity: modification of amine-containing substrates by crude cell-free extract; type: biochemical, Exophiala spinifera; conditions: for modification by the crude extract (catabolase): cell-free extract of substrate-induced Exophiala spinifera, TLC on C18 silica
Experimental: A cell-free extract that contains the catabolase activity was obtained by subjecting substrate-induced Exophiala spinifera cells to disruption using a bead beater in sodium acetate buffer, pH 5.2, and recovering the cell-free supernatant by centrifugation and 0.45 micron filtration. Catabolic activity is assayed by incubating extracts with AP1 (hydrolyzed fumonisin B1 backbone) or 14C-labelled AP1 with the extract and evaluating by TLC on C18 silica. The product AP1-N1 has a lower Rf than AP1 and is detected either by radiolabel scan or by H2SO4 spray/charring of the TLC plate. […] Other amine-containing substrates were tested for modification by the crude extract.

[2] = system: maize coleoptiles; experiment: Effect of FB1 and AP1 on maize coleoptiles; design: key to Injury of maize coleoptiles: + = brown necrotic discoloration of coleoptile; − = no symptoms (same as water control); conditions: for Injury of maize coleoptiles: 2 days dark at 28° C. then 3 days light
Experimental: Maize coleoptiles from 4 day dark-grown germinated maize seeds were excised above the growing point and placed in 96-well microtiter plates in the presence of 60 microliters of sterile distilled water containing FB1 or AP1 at approximately equimolar concentrations of 1.5, 0.5, 0.15, 0.05, 0.015, 0.005, 0.0015, or 0.0005 millimolar, along with water controls. After 2 days in the dark at 28° C. the coleoptiles were placed in the light and incubated another 3 days.

[3] = system: maize tissue cultured cells (Black Mexican Sweet, BMS); conditions: for concentration at which growth of BMS cells was inhibited: liquid culture, 96-well plates, 1 week, cell density versus water control
[4] = system: maize callus; conditions: solid medium; Van Asch et al. 1992; cited from earlier work
[5] = system: FB1 Hydrolase activity; experiment: Effect of various treatments on modification of FB1 by E. spinifera esterase (culture filtrates); type: biochemical, Exophiala spinifera; design: key: − = no hydrolysis; ± = trace amount of hydrolysis; + = incomplete hydrolysis; ++ = incomplete hydrolysis; +++ = complete hydrolysis; conditions: then incubated with FB1 overnight at 37° C.
Experimental: (§1) Analytical thin-layer chromatography was carried out on 100% silanized C18 silica plates (Sigma #T-7020; 10×10 cm; 0.1 mm thick) by a modification of the published method of Rottinghaus (Rottinghaus, G. E., Coatney, C. E., and Minor, H. C., A rapid, sensitive thin layer chromatography procedure for the detection of fumonisin b-1 and b-2, J Vet Diagn Invest, 4, 326 (1992), and herein incorporated by reference).
(§2) Sample lanes were pre-wet with methanol to facilitate sample application. After application of from 0.1 to 2 μl of aqueous sample, the plates were air-dried and developed in MeOH:4% KCl (3:2) or MeOH:0.2 M KOH (3:2) and then sprayed successively with 0.1 M sodium borate (pH 9.5) and fluorescamine (0.4 mg/ml in acetonitrile). Plates were air-dried and viewed under long wave UV.
The esterase isolated from E. spinifera was then subjected to other treatments, including proteases, to determine whether and how the enzyme would function in various environments.

[6] = Hydrolysis of fumonisin B1 by commercial esterases and hydrolases; type: biochemical; design: key: − = no hydrolysis; ± = trace amount of hydrolysis; + = incomplete hydrolysis; ++ = incomplete hydrolysis; +++ = complete hydrolysis; conditions: assay pH 8.0; overnight at 37° C. with 1 mg/ml fumonisin
Experimental: as §1, §2
The fumonisin esterase isolated from E. spinifera and R. atrovirens was compared with other known esterases from various sources as supplied by commercial vendors.

[7] = system: Lemna tissues; conditions: Vesonder et al. 1992; cited from earlier work
[8] = system: tomato; conditions: Lamprecht et al. 1994; cited from earlier work
[9] = treatment 0.01 mg/ml, 16 hr, 37° C., pH 5.2

CCCCCCCCCCCCC/C=C/[C@@H](O)[C@@H](N)CO [Sphingosine]
modification by the crude extract (catabolase) [1]: apparently not modified

CCCCCCCCCCCCCCC[C@@H](O)[C@@H](N)CO [sphinganine]
modification by the crude extract (catabolase) [1]: apparently not modified

CCCC[C@@H](C)[C@@H](OC(=O)C[C@@H](CC(=O)O)C(=O)O)[C@H](C[C@@H](C)C[C@H](O)CCCC[C@@H](O)C[C@H](O)[C@H](C)N)OC(=O)C[C@@H](CC(=O)O)C(=O)O [FB1, Fumonisin B1]
Injury of maize coleoptiles ([2]; 1.5 mM): +
Injury of maize coleoptiles ([2]; .0005 mM): −
Injury of maize coleoptiles ([2]; .0015 mM): −
Injury of maize coleoptiles ([2]; .005 mM): −
Injury of maize coleoptiles ([2]; .05 mM): +
Injury of maize coleoptiles ([2]; .15 mM): +
Injury of maize coleoptiles ([2]; .5 mM): +
modification by the crude extract (catabolase) [1]: not modified
concentration at which growth of BMS cells was inhibited [3]: 400 nM
concentration giving significant inhibition of maize callus [4]: 1400 nM

O[C@@H](CS)[C@@H](O)CS [DTT]
FB1 Hydrolase activity ([5]; treatment 25 mM): +++

[Ca+2] [Ca^++]
FB1 Hydrolase activity ([5]; treatment 50 mM): +++

Trypsin
FB1 Hydrolase activity [5, 9]: +++

Cholinesterase, butyryl: EC 3.1.1.8, Horse serum, highly purified
FB1 hydrolysis [6]: −

CCCC[C@@H](C)[C@@H](O)[C@@H](O)C[C@@H](C)C[C@H](O)CCCC[C@@H](O)C[C@H](O)[C@H](C)N [AP1]
Injury of maize coleoptiles ([2]; 1.5 mM): +
Injury of maize coleoptiles ([2]; .0005 mM): −
Injury of maize coleoptiles ([2]; .0015 mM): −
Injury of maize coleoptiles ([2]; .005 mM): −
Injury of maize coleoptiles ([2]; .015 mM): −
Injury of maize coleoptiles ([2]; .05 mM): −
Injury of maize coleoptiles ([2]; .15 mM): −
Injury of maize coleoptiles ([2]; .5 mM): −
difference in toxicity between FB1 and AP1 to maize coleoptiles ([2]; AP1 less toxic than FB1): ≥ 30 fold
time to complete conversion to AP1-N1 ([1]; pH 9): 30 min
difference in toxicity (FB1 versus AP1) to maize tissue cultured cells [3]: ~100 fold
concentration at which growth of BMS cells was inhibited [3]: 40000 nM
AP1 less toxic (than FB1) in Lemna tissues [7]: approx. 40 fold
reduction in toxicity to tomato by AP1 versus FB1 [8]: ~100 fold

O=S(=O)(F)Cc1ccccc1 [PMSF, Phenylmethyl sulfonyl fluoride]
FB1 Hydrolase activity ([5]; treatment 10 mM): +++

Chymotrypsin
FB1 Hydrolase activity [5, 9]: ++

[Mg+2] [Mg^++]
FB1 Hydrolase activity ([5]; treatment 50 mM): +++

CCCCCCCCCCCCCC[C@@H](O)[C@@H](O)[C@@H](N)CO [Phytosphingosine]
modification by the crude extract (catabolase) [1]: apparently not modified

O=C(O)CN(CCN(CC(=O)O)CC(=O)O)CC(=O)O [EDTA]
FB1 Hydrolase activity ([5]; treatment 50 mM): ++
